The text below walks through data of publication PMC6312196 (ChemMedChem, 2018).

Positions count from the first letter of the chain named. Like-named read-outs stand apart in the source and are kept apart here.

For one series, the system named is K562. Description: Cellular proliferation assay. Conditions: read-out: IC50 (mean ±SD) K562. Format: cell-based.
For another series, the system named is KCL22. As to the kind of experiment: Cellular proliferation assay. It is filed as cell-based. The following applies: read-out: IC50 (mean ±SD) KCL22.
For the next series, the system named is KCL22-IR. Description: Cellular proliferation assay. It is filed as cell-based. The following applies: 72 h.
In a further series the target is T1, ABL1 (Homo sapiens, UniProt P00519).
T1 sequence (P00519 242-493 limits assumed): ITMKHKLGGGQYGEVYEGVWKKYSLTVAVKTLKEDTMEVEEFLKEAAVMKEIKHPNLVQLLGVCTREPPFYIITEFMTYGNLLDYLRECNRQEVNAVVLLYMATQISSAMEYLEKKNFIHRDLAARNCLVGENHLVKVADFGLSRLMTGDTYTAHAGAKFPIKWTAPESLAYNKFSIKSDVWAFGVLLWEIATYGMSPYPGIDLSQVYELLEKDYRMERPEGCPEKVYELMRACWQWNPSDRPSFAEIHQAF
Description: Enzymatic inhibition of ABL1 wild type. Conditions: read-out: IC50 ABL1 wild type; enzyme, Figure 8A. It is filed as biochemical.

Series [1] concerns the target ABL1(T315I) (Homo sapiens, UniProt P00519+P11274, T315I). Description: Cellular ABL1 kinase phosphorylation assay in KCL22-IR. The following applies: read-out: IC50 (mean ±SD) cellular ABL1 activity, KCL22-IR; 2 hours incubation, KCL22-T315I cells.
Series [2] has as its target T2, ABL1(T315I) (Homo sapiens, UniProt P00519, T315I).
T2 sequence (P00519 242-493 T315I limits assumed): T1 sequence (P00519 242-493 limits assumed) with T74I
As to the kind of experiment: Enzymatic inhibition of ABL1. Format: biochemical. Conditions: read-out: IC50 ABL1(T315I); enzyme, Figure 8B.

The conditions of series [3]: cited from earlier work.
The mark [4] stands for this setting: read-out: IC50 (mean ±SD) KCL22-IR, anti-proliferation, T315I mutation.

`Cc1ccc(C(=O)Nc2ccc(CN3CCN(C)CC3)c(C(F)(F)F)c2)cc1C#Cc1cnc(N)c2ncccc12` [Compound 9]: the IC50 came to 1.85 ± 0.03 nM in the series with K562 (anti-proliferation, 72 h); 0.18 ± 0.004 nM in the series on KCL22 (anti-proliferation, 72 h); 0.74 ± 0.004 nM in the series on KCL22-IR (setting [4]).
As for `Cc1ncc(C(=O)Nc2ccc(CN3CCN(C)CC3)c(C(F)(F)F)c2)cc1C#Cc1cnc(N)c2ncccc12` [Compound 15], the concentration for half-maximal inhibition (IC50) at ABL1 is under 5 nM; in the series on K562 (anti-proliferation, 72 h), 1.75 ± 0.04 nM; at ABL1(T315I) [1], 18.9 ± 1.1 nM; in the series with KCL22 (anti-proliferation, 72 h) it was 0.303 ± 0.002 nM; at ABL1(T315I) [2], 4.7 nM; with KCL22-IR (setting [4]), 2.67 ± 0.07 nM.
`CN1CCN(Cc2ccc(NC(=O)c3cncc(C#Cc4cnc(N)c5ncccc45)c3)cc2C(F)(F)F)CC1` [Compound 16]: the IC50 on ABL1 was under 5 nM; in the series on K562 (anti-proliferation, 72 h) it was 0.765 ± 0.005 nM; at ABL1(T315I) [1], 26 ± 1.1 nM; in the series on KCL22 (anti-proliferation, 72 h), 1.02 ± 0.04 nM; on ABL1(T315I) [2] it was 40.7 nM; with KCL22-IR (setting [4]) it was 4.14 ± 0.11 nM.
As for `CN1CCN(Cc2ccc(NC(=O)c3cncc(C#Cc4c(N)ncc5ccc(F)cc45)c3)cc2C(F)(F)F)CC1` [Compound 29], the IC50 on ABL1 was under 5 nM; with K562 (anti-proliferation, 72 h), 0.688 ± 0.003 nM; at ABL1(T315I) [1] it was 36.4 ± 1.1 nM; in the series with KCL22 (anti-proliferation, 72 h), 0.444 ± 0.008 nM; on ABL1(T315I) [2] it was 32.8 nM; with KCL22-IR (setting [4]) it was 4.1 ± 0.03 nM.
Turning to `Cc1ccc(NC(=O)c2ccc(CN3CCN(C)CC3)cc2)cc1Nc1nccc(-c2cccnc2)n1` [Imatinib, reference compound], in the series with KCL22-IR (read-out: IC50 KCL22-IR (bound cells)), the IC50 was over 1000 nM.
On to `Cc1ccc(C(=O)Nc2ccc(CN3CCN(C)CC3)c(C(F)(F)F)c2)cc1C#Cc1cnc2cccnn12` [Ponatinib, reference compound], for which the half-maximal inhibitory concentration (IC50) in the series on K562 (Homo sapiens, K562, 72 h) is 0.6003 ± 0.0023 nM; with KCL22 (Homo sapiens, KCL-22, 72 h), 0.142 ± 0.003 nM; with KCL22-IR (read-out: IC50 (mean ±SD) KCL22-IR), 0.66 ± 0.005 nM. The “patients reporting serious and non-serious thrombotic events” value in series [3] (cardiovascular, cerebrovascular, peripheral vascular events) is listed as 17.1%. Besides, the “deaths linked to the use of the drug” value in series [3] (study n=499) is “Five”.
